Reference: ChEMBL document CHEMBL4251656, “Design, synthesis, and biological evaluation of novel catecholopyrimidine based PDE4 inhibitor for the treatment of atopic dermatitis” (Eur J Med Chem, 2018)
The source made the active and inactive calls. The rule behind the calls is not given here.

Legend:
[1] = molecular target: Dual 3',5'-cyclic-AMP and -GMP phosphodiesterase 11A (Homo sapiens, UniProt Q9HCR9); assay: Inhibition of PDE11A (unknown origin) using cAMP as substrate after 1 hr by LANCE TR-FRET assay
Chain of Dual 3',5'-cyclic-AMP and -GMP phosphodiesterase 11A (Q9HCR9 whole entry): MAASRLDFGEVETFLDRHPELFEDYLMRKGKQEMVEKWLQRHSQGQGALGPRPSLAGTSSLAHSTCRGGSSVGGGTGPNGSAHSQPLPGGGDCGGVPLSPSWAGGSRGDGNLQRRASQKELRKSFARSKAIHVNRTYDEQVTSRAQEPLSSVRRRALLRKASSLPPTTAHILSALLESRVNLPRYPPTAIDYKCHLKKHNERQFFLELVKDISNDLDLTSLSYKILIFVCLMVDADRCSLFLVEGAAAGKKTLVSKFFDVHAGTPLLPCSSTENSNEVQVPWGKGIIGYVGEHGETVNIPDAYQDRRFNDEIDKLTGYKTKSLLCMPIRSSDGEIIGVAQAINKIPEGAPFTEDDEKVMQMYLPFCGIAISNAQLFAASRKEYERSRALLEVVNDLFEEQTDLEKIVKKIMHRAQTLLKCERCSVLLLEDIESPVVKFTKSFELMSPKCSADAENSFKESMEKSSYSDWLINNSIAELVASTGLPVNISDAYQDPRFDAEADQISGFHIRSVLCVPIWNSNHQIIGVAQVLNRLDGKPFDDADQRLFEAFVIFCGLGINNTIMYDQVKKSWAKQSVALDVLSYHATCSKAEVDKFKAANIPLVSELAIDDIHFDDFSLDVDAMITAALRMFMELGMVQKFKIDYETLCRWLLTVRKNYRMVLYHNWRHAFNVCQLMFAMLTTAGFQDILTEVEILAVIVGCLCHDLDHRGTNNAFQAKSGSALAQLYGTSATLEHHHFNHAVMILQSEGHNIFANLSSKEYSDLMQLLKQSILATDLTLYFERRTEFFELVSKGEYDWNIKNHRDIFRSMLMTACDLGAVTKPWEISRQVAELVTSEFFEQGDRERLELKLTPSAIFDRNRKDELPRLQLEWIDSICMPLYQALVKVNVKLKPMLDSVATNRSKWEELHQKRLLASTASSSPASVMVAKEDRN

[2] = molecular target: 3',5'-cyclic-AMP phosphodiesterase 4C (Homo sapiens, UniProt Q08493); assay: Inhibition of recombinant human full length N-terminal GST-tagged PDE4C1 expressed in baculovirus infected Sf9 cells using cAMP as substrate after 1 hr by LANCE TR-FRET assay
Chain of 3',5'-cyclic-AMP phosphodiesterase 4C (Q08493 whole entry): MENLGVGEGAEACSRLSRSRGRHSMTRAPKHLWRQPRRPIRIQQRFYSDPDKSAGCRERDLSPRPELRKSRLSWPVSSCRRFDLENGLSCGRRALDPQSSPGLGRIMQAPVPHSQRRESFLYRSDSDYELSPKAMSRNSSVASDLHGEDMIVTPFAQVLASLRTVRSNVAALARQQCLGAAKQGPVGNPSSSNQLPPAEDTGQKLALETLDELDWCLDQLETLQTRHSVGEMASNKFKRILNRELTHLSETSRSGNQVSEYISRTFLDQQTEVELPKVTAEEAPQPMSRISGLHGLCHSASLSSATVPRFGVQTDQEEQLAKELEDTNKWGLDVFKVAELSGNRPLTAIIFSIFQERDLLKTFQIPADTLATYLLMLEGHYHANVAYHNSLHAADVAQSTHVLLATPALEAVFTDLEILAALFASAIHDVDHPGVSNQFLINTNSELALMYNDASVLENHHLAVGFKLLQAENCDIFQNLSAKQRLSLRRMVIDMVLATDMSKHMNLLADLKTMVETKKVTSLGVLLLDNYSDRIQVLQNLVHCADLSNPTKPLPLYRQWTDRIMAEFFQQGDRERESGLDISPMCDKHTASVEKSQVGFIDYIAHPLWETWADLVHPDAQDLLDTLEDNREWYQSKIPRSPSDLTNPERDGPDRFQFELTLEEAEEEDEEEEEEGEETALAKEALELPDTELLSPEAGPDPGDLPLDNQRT

[3] = molecular target: T1, 3',5'-cyclic-AMP phosphodiesterase 4A (Homo sapiens, UniProt P27815); assay: Inhibition of recombinant full length human N-terminal GST-tagged PDE4A1 expressed in baculovirus infected Sf9 cells using cAMP as substrate after 1 hr by LANCE TR-FRET assay
T1 sequence (P27815 whole entry): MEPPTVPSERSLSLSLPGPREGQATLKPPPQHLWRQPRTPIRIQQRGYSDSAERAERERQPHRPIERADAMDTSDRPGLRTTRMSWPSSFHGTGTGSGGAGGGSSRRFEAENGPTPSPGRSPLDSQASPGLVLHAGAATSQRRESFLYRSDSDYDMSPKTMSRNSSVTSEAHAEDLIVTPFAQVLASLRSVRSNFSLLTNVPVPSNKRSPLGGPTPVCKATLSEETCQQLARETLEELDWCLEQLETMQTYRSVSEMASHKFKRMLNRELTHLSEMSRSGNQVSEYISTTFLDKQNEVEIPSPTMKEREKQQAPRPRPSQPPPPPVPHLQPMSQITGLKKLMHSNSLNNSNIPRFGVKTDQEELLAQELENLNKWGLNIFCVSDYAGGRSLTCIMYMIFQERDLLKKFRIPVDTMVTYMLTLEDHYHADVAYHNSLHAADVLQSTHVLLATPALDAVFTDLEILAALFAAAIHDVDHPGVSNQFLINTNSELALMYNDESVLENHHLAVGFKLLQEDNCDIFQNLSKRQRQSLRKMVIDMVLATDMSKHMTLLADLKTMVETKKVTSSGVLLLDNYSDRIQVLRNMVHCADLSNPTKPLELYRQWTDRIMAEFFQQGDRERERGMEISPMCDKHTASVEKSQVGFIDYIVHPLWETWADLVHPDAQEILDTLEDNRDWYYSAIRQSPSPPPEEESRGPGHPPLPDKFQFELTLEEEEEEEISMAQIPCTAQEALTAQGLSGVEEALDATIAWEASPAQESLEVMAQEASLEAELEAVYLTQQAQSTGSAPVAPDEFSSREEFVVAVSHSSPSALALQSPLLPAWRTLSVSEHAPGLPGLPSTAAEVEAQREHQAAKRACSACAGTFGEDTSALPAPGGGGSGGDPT

[4] = molecular target: T2, 3',5'-cyclic-AMP phosphodiesterase 4B (Homo sapiens, UniProt Q07343); assay: Inhibition of recombinant human full length N-terminal GST-tagged PDE4B1 expressed in baculovirus infected Sf9 cells using cAMP as substrate after 1 hr by LANCE TR-FRET assay
T2 sequence (Q07343 whole entry, the tested form may be a part): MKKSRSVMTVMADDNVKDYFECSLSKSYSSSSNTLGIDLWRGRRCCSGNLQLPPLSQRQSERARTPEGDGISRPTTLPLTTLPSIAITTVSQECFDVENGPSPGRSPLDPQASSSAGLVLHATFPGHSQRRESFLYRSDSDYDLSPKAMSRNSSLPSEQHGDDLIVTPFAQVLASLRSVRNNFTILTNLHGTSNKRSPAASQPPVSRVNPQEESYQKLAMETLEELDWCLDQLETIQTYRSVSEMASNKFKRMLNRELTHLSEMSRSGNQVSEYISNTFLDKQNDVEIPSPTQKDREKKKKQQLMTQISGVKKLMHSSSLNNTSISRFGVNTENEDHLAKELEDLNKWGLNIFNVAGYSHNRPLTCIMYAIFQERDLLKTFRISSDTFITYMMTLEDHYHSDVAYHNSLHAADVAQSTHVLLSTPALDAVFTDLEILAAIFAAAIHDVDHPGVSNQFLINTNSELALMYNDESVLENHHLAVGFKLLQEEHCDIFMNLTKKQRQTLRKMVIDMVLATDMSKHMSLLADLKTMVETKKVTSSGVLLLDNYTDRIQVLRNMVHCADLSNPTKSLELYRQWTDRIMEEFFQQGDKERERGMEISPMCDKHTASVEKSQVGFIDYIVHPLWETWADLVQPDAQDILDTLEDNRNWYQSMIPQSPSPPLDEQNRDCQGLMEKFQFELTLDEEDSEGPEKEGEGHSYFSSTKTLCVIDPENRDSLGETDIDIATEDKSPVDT

[5] = molecular target: 3',5'-cyclic-AMP phosphodiesterase 4D (Homo sapiens, UniProt Q08499); assay: Inhibition of recombinant human N-terminal GST-tagged PDE4D7 (2 to 748 residues) expressed in baculovirus infected Sf9 cells using cAMP as substrate after 1 hr by LANCE TR-FRET assay
Chain of 3',5'-cyclic-AMP phosphodiesterase 4D (Q08499 whole entry, the tested form may be a part): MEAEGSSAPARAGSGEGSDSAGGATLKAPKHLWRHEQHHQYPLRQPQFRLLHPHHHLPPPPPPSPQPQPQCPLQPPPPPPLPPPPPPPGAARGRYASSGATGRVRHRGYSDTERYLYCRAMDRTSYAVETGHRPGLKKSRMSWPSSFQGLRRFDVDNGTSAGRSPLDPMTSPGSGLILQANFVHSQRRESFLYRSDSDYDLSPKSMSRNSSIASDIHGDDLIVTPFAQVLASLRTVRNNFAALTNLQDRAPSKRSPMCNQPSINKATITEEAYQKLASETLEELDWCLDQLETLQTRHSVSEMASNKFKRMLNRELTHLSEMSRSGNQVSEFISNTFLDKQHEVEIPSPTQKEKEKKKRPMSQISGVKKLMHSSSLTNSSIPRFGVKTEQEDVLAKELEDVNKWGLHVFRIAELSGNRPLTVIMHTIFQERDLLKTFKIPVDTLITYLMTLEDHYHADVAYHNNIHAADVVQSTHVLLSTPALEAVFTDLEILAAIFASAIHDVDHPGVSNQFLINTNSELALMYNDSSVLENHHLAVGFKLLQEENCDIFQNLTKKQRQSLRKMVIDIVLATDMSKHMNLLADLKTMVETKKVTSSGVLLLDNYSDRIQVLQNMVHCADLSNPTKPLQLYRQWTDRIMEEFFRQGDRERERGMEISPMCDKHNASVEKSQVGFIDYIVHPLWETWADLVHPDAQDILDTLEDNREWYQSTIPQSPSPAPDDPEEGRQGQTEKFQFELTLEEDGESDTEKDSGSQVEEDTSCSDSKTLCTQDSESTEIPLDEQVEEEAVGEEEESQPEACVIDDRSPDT

[6] = molecular target: cGMP-inhibited 3',5'-cyclic phosphodiesterase 3B (Homo sapiens, UniProt Q13370); assay: Inhibition of recombinant human N-terminal GST-tagged PDE3B (592-end residues) expressed in baculovirus infected Sf9 cells using cAMP as substrate after 1 hr by LANCE TR-FRET assay
[7] = molecular target: T1, 3',5'-cyclic-AMP phosphodiesterase 4A; assay: Inhibition of recombinant human N-terminal GST-tagged PDE4A4 (2 to 886 residues) expressed in baculovirus infected Sf9 cells using cAMP as substrate after 1 hr by LANCE TR-FRET assay
[8] = molecular target: T2, 3',5'-cyclic-AMP phosphodiesterase 4B; assay: Inhibition of recombinant full length human N-terminal GST-tagged PDE4B1 expressed in baculovirus infected Sf9 cells using cAMP as substrate after 1 hr by LANCE TR-FRET assay
Mus musculus [9] = assay: Reversal of DNCB-induced atopic dermatitis-like symptoms in Balb/c mouse assessed as reduction in epidermal thickness administered topically once daily starting from day 6 post DNCB treatment up to 34 days by hematoxylin and eosin staining based light microscopic method; type: functional, organism-based
Mus musculus [10] = assay: Reversal of DNCB-induced atopic dermatitis-like symptoms in Balb/c mouse assessed as reduction in serum Ig-E level administered topically once daily starting from day 6 post DNCB treatment up to 34 days; type: functional, organism-based
Mus musculus [11] = assay: Reversal of DNCB-induced atopic dermatitis-like symptoms in Balb/c mouse assessed as reduction in skin erosion administered topically once daily starting from day 6 post DNCB treatment up to 34 days; type: functional, organism-based
Mus musculus [12] = assay: Reversal of DNCB-induced atopic dermatitis-like symptoms in Balb/c mouse assessed as reduction in hypertrophy administered topically once daily starting from day 6 post DNCB treatment up to 34 days by hematoxylin and eosin staining based light microscopic method; type: functional, organism-based
Mus musculus [13] = assay: Reversal of DNCB-induced atopic dermatitis-like symptoms in Balb/c mouse assessed as reduction in TNF-alpha level in skin administered topically once daily starting from day 6 post DNCB treatment up to 34 days; type: functional, organism-based
Mus musculus [14] = assay: Reversal of DNCB-induced atopic dermatitis-like symptoms in Balb/c mouse assessed as reduction in erythema administered topically once daily starting from day 6 post DNCB treatment up to 34 days; type: functional, organism-based
Mus musculus [15] = assay: Reversal of DNCB-induced atopic dermatitis-like symptoms in Balb/c mouse assessed as reduction in hemorrhage administered topically once daily starting from day 6 post DNCB treatment up to 34 days; type: functional, organism-based
Mus musculus [16] = assay: Reversal of DNCB-induced atopic dermatitis-like symptoms in Balb/c mouse assessed as reduction in scratching frequency administered topically once daily starting from day 6 post DNCB treatment up to 34 days; type: functional, organism-based
Mus musculus [17] = assay: Reversal of DNCB-induced atopic dermatitis-like symptoms in Balb/c mouse assessed as reduction in signs of edema administered topically once daily starting from day 6 post DNCB treatment up to 34 days by hematoxylin and eosin staining based light microscopic method; type: functional, organism-based
Mus musculus [18] = assay: Reversal of DNCB-induced atopic dermatitis-like symptoms in Balb/c mouse assessed as reduction in excoriation administered topically once daily starting from day 6 post DNCB treatment up to 34 days; type: functional, organism-based
Mus musculus [19] = assay: Reversal of DNCB-induced atopic dermatitis-like symptoms in Balb/c mouse assessed as reduction in skin scaling or dryness administered topically once daily starting from day 6 post DNCB treatment up to 34 days; type: functional, organism-based
Mus musculus [20] = assay: Toxicity in Balb/c mouse assessed as induction of allergy administered topically once daily up to 34 days; type: organism-based; conditions: in vivo, topical_or_ocular, 816 h
Mus musculus [21] = assay: Reversal of DNCB-induced atopic dermatitis-like symptoms in Balb/c mouse assessed as reduction in inflammatory cell infilteration in epidermal and dermal region of skin administered topically once daily starting from day 6 post DNCB treatment up to 34 days by toluidine blue staining based light microscopic method; type: functional, organism-based
Mus musculus [22] = assay: Toxicity in Balb/c mouse assessed as effect on skin architecture administered topically once daily up to 34 days by hematoxylin and eosin staining based light microscopic method; type: organism-based; conditions: in vivo, topical_or_ocular, 816 h
Mus musculus [23] = assay: Reversal of DNCB-induced atopic dermatitis-like symptoms in Balb/c mouse assessed as dorsal skin thickness administered topically once daily starting from day 6 post DNCB treatment up to 34 days (reference value: 1.19 millimeter); type: functional
Mus musculus [24] = assay: Reversal of DNCB-induced atopic dermatitis-like symptoms in Balb/c mouse assessed as reduction in edema administered topically once daily starting from day 6 post DNCB treatment up to 34 days; type: functional, organism-based
Mus musculus [25] = assay: Reversal of DNCB-induced atopic dermatitis-like symptoms in Balb/c mouse assessed as reduction in hyperkeratosis administered topically once daily starting from day 6 post DNCB treatment up to 34 days by hematoxylin and eosin staining based light microscopic method; type: functional, organism-based
Homo sapiens = species: Homo sapiens; assay: Selectivity ratio of IC50 for nhibition of recombinant human N-terminal GST-tagged PDE4D7 (2 to 748 residues) expressed in baculovirus infected Sf9 cells to IC50 for recombinant full length human N-terminal GST-tagged PDE4B1 expressed in baculovirus infected Sf9 cells
Mus musculus [26] = assay: Reversal of DNCB-induced atopic dermatitis-like symptoms in Balb/c mouse assessed as reduction in epidermal hyperplasia administered topically once daily starting from day 6 post DNCB treatment up to 34 days by hematoxylin and eosin staining based light microscopic method; type: functional, organism-based

| IC50 [1] [nM] | IC50 [2] [nM] | IC50 [3] [nM] | IC50 [4] [nM] | IC50 [5] [nM] | IC50 [7] [nM] | IC50 [8] [nM] | SMILES | other results |
| --- | --- | --- | --- | --- | --- | --- | --- | --- |
| 1500 | 156 | 678 | 67 | 385 | 100 |  | COc1ccc(NC(=O)c2cnc(C(F)(F)F)nc2N2CCOCC2)cc1OC | IC50 [6]: 950 nM |
|  |  |  |  |  |  | 222 | COc1ccc(-c2nc(C(F)(F)F)ncc2C(=O)Nc2c(C(C)C)cccc2C(C)C)cc1OC |  |
| 250 |  | 98 | 15 |  |  |  | COc1ccc(-c2nc(C(F)(F)F)ncc2C(=O)Nc2ccncc2)cc1OC | Activity (Mus musculus [9]): Active; Activity (Mus musculus [10]): Active; Activity (Mus musculus [11]): Active; Activity (Mus musculus [12]): Active; Activity (Mus musculus [13]): Active; Activity (Mus musculus [14]): Active; Activity (Mus musculus [15]): Active; Activity (Mus musculus [16]): Active; Activity (Mus musculus [17]): Active; Activity (Mus musculus [18]): Active; Activity (Mus musculus [19]): Active; Activity (Mus musculus [20]): Non-Toxic; Activity (Mus musculus [21]): Active; Activity (Mus musculus [22]): Non-Toxic; Activity (Mus musculus [23]): 0.71 mm; Activity (Mus musculus [24]): Active; Activity (Mus musculus [25]): Active; Ratio IC50 (Homo sapiens): 7; Activity (Mus musculus [26]): Active |
| 245 | 39 | 281 | 44 | 360 | 89 |  | COc1ccc(-c2nc(C(F)(F)F)ncc2C(=O)Nc2c(Cl)cncc2Cl)cc1OC | IC50 [6]: 321 nM |

Further lines, the compound ahead of its results:

| SMILES | IC50 [1] [nM] | IC50 [2] [nM] | IC50 [3] [nM] | IC50 [4] [nM] | IC50 [5] [nM] | IC50 [7] [nM] | IC50 [8] [nM] | other results |
| --- | --- | --- | --- | --- | --- | --- | --- | --- |
| COc1ccc(CCNC(=O)c2cnc(C(F)(F)F)nc2N2CCOCC2)cc1OC |  |  |  |  |  |  | 150 |  |
| COc1ccc(CCNC(=O)c2cnc(SC)nc2N2CCOCC2)cc1OC | 659 | 326 |  | 61 | 136 | 284 | 61 |  |
| COc1ccc(CCNC(=O)c2cnc(SC)nc2N2CCN(CCO)CC2)cc1OC |  |  |  |  |  |  | 238 |  |
| COc1ccc(NC(=O)c2cnc(SC)nc2N2CCOCC2)cc1OC | 480 |  | 756 | 31 |  |  |  |  |
